Article PMC8231556, “Inhibiting Endothelial Cell Function in Normal and Tumor Angiogenesis Using BMP Type I Receptor Macrocyclic Kinase Inhibitors” (Cancers, 2021)

Tests used:
[1] = system: VEGF-induced pERK; assay: Western blot of VEGF-induced ERK MAP kinase phosphorylation in HUVECs; type: cell-based, human; settings: VEGF 40 ng/mL
Protocol: (§1) EA.hy926 cells or HUVECs were seeded in 6-well plates and starved in a serum-free medium for 4 h after reaching 80% confluence. The compounds were added 30 min prior to stimulation with the corresponding ligands. EA.hy926 cells were incubated with BMP9 (1 ng/mL), BMP6 (50 ng/mL), TGF-β2 (1 ng/mL), or vehicle control for 1 h. For HUVECs, after 4 h starvation, the cells were pre-treated with or without the indicated compounds for 30 min and subsequently stimulated with VEGF (40 ng/mL) for 10 min. The cells were harvested and lysed in radioimmunoprecipitation assay (RIPA) lysis buffer containing 1× complete protease inhibitor cocktail (11836153001, Roche, Basel, Switzerland). The protein concentration was determined using the DC protein assay kit (5000111, Bio-Rad). After adding loading buffer, the samples were boiled and proteins separated by sodium dodecyl sulfate polyacrylamide gel electrophoresis (SDS-PAGE). Proteins in the gel were transferred to polyvinylidene difluoride (PVDF) membranes (IPVH00010, Merck Millipore, Burlington, MA, USA) and immunoblotted with 1000 times diluted primary antibodies: phospho-SMAD1/5 (9516 S, Cell Signaling Technology, Leiden, The Netherlands), phospho-SMAD2 (pSMAD2, home-made), SMAD1 (6944 S, Cell Signaling Technology), SMAD2 (3103 S, Cell Signaling Technology), phospho-extracellular signal-regulated kinase/mitogen-activated protein kinase (pERK/MAPK, 4370, Cell Signaling Technology), mitogen-activated protein kinase/ERK1/2 (ERK1/2/MAPK, 9102 S, Cell Signaling Techonol), VEGFR (2479, Cell Signaling), pVEGFR (2478, Cell Signaling Technology), α/β-Tubulin (2148, Cell Signaling Technology), glyceraldehyde 3-phosphate dehydrogenase (GAPDH, MAB374, Merck Millipore). Clarity™ enhanced chemiluminescence (ECL) reagent (1705060, Bio-Rad) was used to visualize secondary antibodies conjugated to horseradish peroxidase (HRP). GAPDH or Tubulin was used as protein loading controls. […] The protein bands were quantified using ImageJ (National Institutes of Health, Bethesda, MD, USA).

[2] = system: HUVECs; assay: Cord formation assay, HUVEC-eGFP co-cultured with human dermal fibroblasts; type: cell-based; settings: for effect on VEGF-induced cord length, different concentrations: dose range; for effect on VEGF-induced EC cord formation: VEGF 15 ng/mL, 6 days, 0.5 µM (Sunitinib 1 μM)
Protocol: The cord formation assay was performed according to the IncuCyte Angiogenesis PrimeKit Assay protocol (Cell Player Angiogenesis PrimeKit, Essen BioScience). In brief, GFP labeled HUVEC cells and human dermal fibroblasts were mixed in a 1:20 ratio and seeded per well in a 96-well plate (3150 cells in total). Thereafter, the cells were exposed to VEGF alone or in combination with the compounds (at indicated concentrations) in a complete assay medium. Pictures were captured every 6 h for up to 9 days To monitor the cord formation. The medium was refreshed every 2 or 3 days. Cords formation was visualized by the GFP fluorescence, and cord length was quantified with the instrument’s software. All the experiments were repeated at least three times, and representative experiments are shown.

[3] = system: Tg (fli:EGFP) zebrafish embryos; assay: Zebrafish DLAV and ISV formation; type: in vivo; settings: 0.5 µM, 20 h
Protocol: The Tg (fli:EGFP) zebrafish embryos were collected, and embryos with the same development stage (around 2.5 hpf) were selected. The eggs were randomly separated into different groups, and each group contained at least 20 embryos. The embryos were exposed to egg water containing 0.5 µM compounds or vehicle control (equal amount of DMSO) for 20 h at 28 °C. Next, all the eggs were dechorionated under the microscope using tweezers. The zebrafish embryos were fixed in 4% paraformaldehyde (PFA) for 2 h at room temperature and stored at 4 °C in phosphate-buffered saline (PBS). The entire zebrafish embryo was imaged with an Andor Dragonfly 500 spinning disk confocal (Oxford Instruments, Abingdon, UK) using a 488 nm laser. Five embryos in each group were randomly selected and scanned. The zebrafish vasculature formation of DLAV and ISV after 20 h treatment with compounds was quantified using ImageJ as previously described. The experiments were repeated twice with similar results.

[4] = system: BMP9-induced SMAD1/5 phosphorylation; assay: Western blot of BMP9-induced SMAD1/5 phosphorylation in EA.hy926 cells; type: cell-based; settings: Homo sapiens, EA.hy 926, BMP9 1 ng/mL, 1 h, read-out: IC50 on BMP9-induced pSMAD1/5 response
Protocol: as §1

[5] = system: BMP9-induced BRE-Luc activity; assay: BRE-luciferase transcriptional reporter assay, BMP9-stimulated EA.hy926-BRE-Luc cells; type: cell-based, human; settings: for BMP9-induced BRE-Luc activity (fold): BMP9 1 ng/mL alone 5.0 fold
Source text: The BMP responsive element (BRE)-driven transcriptional luciferase reporter, which contains SMAD1/5-SMAD4 responsive elements of the ID1 gene promoter, was used to assess the activation of the BMP/SMAD signaling pathway. A lentiviral vector carrying this reporter construct (pRRL-BRE-Luc) was generated by digesting the MLP-BRE-Luc plasmid with KpnI and SalI and then inserted into the lentivirus vector pRRL-CMV digested with XhoI and KpnI. Lentiviral particles were made using HEK 293 T cells, and EA.hy926 cells were transduced to generate BRE-Luc stably expressing cells, named as EA.hy926-BRE-Luc.
EA.hy926-BRE-Luc cells were seeded at approximately 5 × 10^5 cells/well in a 24-well plate. Cells were serum-starved overnight by incubating with a serum-free medium. After starvation, the cells were pre-incubated with the compounds for 30 min and subsequently stimulated overnight with ligands (or vehicle control). Thereafter, the cells were lysed, and luciferase activity was measured with the firefly luciferase assay System kit (E1501, Promega Corporation, Madison, WI, USA) using a PerkinElmer luminometer. The firefly luciferase activity was normalized to protein content, which was determined using the DC protein assay kit (5000111, Bio-Rad, Hercules, CA, USA).

[6] = system: BMP6-induced SMAD1/5 phosphorylation; assay: Western blot of BMP6-induced SMAD1/5 phosphorylation in EA.hy926 cells; type: cell-based, human; settings: BMP6 50 ng/mL
Protocol: EA.hy926 cells or HUVECs were seeded in 6-well plates and starved in a serum-free medium for 4 h after reaching 80% confluence. The compounds were added 30 min prior to stimulation with the corresponding ligands. EA.hy926 cells were incubated with BMP9 (1 ng/mL), BMP6 (50 ng/mL), TGF-β2 (1 ng/mL), or vehicle control for 1 h. For HUVECs, after 4 h starvation, the cells were pre-treated with or without the indicated compounds for 30 min and subsequently stimulated with VEGF (40 ng/mL) for 10 min. The cells were harvested and lysed in radioimmunoprecipitation assay (RIPA) lysis buffer containing 1× complete protease inhibitor cocktail (11836153001, Roche, Basel, Switzerland). The protein concentration was determined using the DC protein assay kit (5000111, Bio-Rad). After adding loading buffer, the samples were boiled and proteins separated by sodium dodecyl sulfate polyacrylamide gel electrophoresis (SDS-PAGE). Proteins in the gel were transferred to polyvinylidene difluoride (PVDF) membranes (IPVH00010, Merck Millipore, Burlington, MA, USA) and immunoblotted with 1000 times diluted primary antibodies: phospho-SMAD1/5 (9516 S, Cell Signaling Technology, Leiden, The Netherlands), phospho-SMAD2 (pSMAD2, home-made), SMAD1 (6944 S, Cell Signaling Technology), SMAD2 (3103 S, Cell Signaling Technology), phospho-extracellular signal-regulated kinase/mitogen-activated protein kinase (pERK/MAPK, 4370, Cell Signaling Technology), mitogen-activated protein kinase/ERK1/2 (ERK1/2/MAPK, 9102 S, Cell Signaling Techonol), VEGFR (2479, Cell Signaling), pVEGFR (2478, Cell Signaling Technology), α/β-Tubulin (2148, Cell Signaling Technology), glyceraldehyde 3-phosphate dehydrogenase (GAPDH, MAB374, Merck Millipore). Clarity™ enhanced chemiluminescence (ECL) reagent (1705060, Bio-Rad) was used to visualize secondary antibodies conjugated to horseradish peroxidase (HRP). GAPDH or Tubulin was used as protein loading controls. All the experiments were repeated at least three times, and representative experiments are shown. The protein bands were quantified using ImageJ (National Institutes of Health, Bethesda, MD, USA).

[7] = system: EA.hy926 cells; assay: Proliferation assay (IncuCyte confluence); type: cell-based, human; settings: 0.5 µM, 3 days
Protocol: Around 4 × 10^3 EA.hy926 cells per well were seeded in a 96-well microplate Essen ImageLock™ in 200 µL of culture medium containing the indicated concentrations of compounds and ligands, and the plate was directly inserted into the IncuCyte ZOOM instrument for scanning. Images of each well were acquired every 4 h for 3 days. The real-time cell confluence in each well was analyzed after normalizing to the initial cell density. All the experiments were repeated at least three times, and representative results are shown.

SMILES	effect on VEGF-induced pERK [1]	effect on VEGF-induced cord length, different concentrations ([2]; VEGF 20 ng/mL, 9 days)	effect on DLAV and ISV formation (images) [3]	effect on total vessel length and number of junctions (DLAV and ISV, quantified) [3]	IC50 [4] [nM]	effect on BMP9-induced BRE activity ([5]; 0.5 μM compound)	effect on BMP9-induced BRE activity ([5]; 1 μM compound)	effect on BMP6-induced SMAD1/5 phosphorylation ([6]; 0.1 µM compound)	effect on EC proliferation (real-time confluence) [7]	effect on VEGF-induced EC cord formation [2]	BMP9-induced BRE-Luc activity (fold) ([5]; 0.1 μM compound)	effect on VEGF-induced cord formation at 0.5 μM ([2]; VEGF 20 ng/mL, 9 days, 0.5 μM)	effect on DLAV formation [3]	effect on ISV development [3]	BMP9-induced BRE-Luc activity (fold) ([5]; 0.5 μM compound)	BMP9-induced BRE-Luc activity (fold) ([5]; 1 μM compound)	effect on BMP6-induced SMAD1/5 phosphorylation ([6]; 1 µM compound)	effect on VEGF-induced cord formation at 0.1 μM ([2]; VEGF 20 ng/mL, 9 days, 0.1 μM)
CNC(=O)c1ccccc1Sc1ccc2c(/C=C/c3ccccn3)n[nH]c2c1 [Axitinib, reference compound]	blocked	potently inhibited	strong defects in both DLAV and ISV formation	strongly inhibited														
c1ccc2c(-c3cnn4cc(-c5ccc(N6CCNCC6)cc5)cnc34)ccnc2c1 [LDN-193189, reference compound]			did not exhibit apparent defects	showed no effects	110	significantly inhibited	nearly decreased to basal levels	efficiently inhibited	strongly inhibited	no inhibitory effect and even slightly enhanced								
CN1CCc2cccc(c2)Nc2nccc(n2)N2CCCc3cc(ccc32)C1 [OD16]	failed to alter	antagonized in a dose-dependent manner		significantly inhibited	80		nearly completely inhibited	efficiently inhibited	LDN-193189 strongly inhibited ECs proliferation, unlike OD16 and OD29	antagonized	2.1	apparent inhibitory effects	strongly delayed	slightly inhibited				
CN1CCC(=O)NCCNc2ccn3ncc(c3n2)-c2cccc(c2)C1 [OD29]	profoundly decreased	antagonized in a dose-dependent manner	strong negative impact	significantly inhibited	430			failed to antagonize	LDN-193189 strongly inhibited ECs proliferation, unlike OD16 and OD29	antagonized					3.1	0.9	very weak inhibitory effect	effectively attenuated
